From PubChem BioAssay (NCI)
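Dose response: 5 concentrations. Exposure: 48 h. Format: 96-well plates. Endpoint: linear interpolation; highest concentration if not reached. GI50: concentration for 50% inhibition of growth. TGI marks complete inhibition of growth.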

Assays:
Experiment in all cases: growth of human tumour cells (NCI), 48 h
RXF 393 renal = tested on: RXF 393 renal
CCRF-CEM leukemia = tested on: CCRF-CEM leukemia
OVCAR-5 ovarian = tested on: OVCAR-5 ovarian
OVCAR-4 ovarian = tested on: OVCAR-4 ovarian
KM12 colon = tested on: KM12 colon
NCI-H522 lung = tested on: NCI-H522 lung
SK-MEL-2 melanoma = tested on: SK-MEL-2 melanoma
HCC-2998 colon = tested on: HCC-2998 colon
NCI-H23 lung = tested on: NCI-H23 lung
NCI/ADR-RES ovarian = tested on: NCI/ADR-RES ovarian
MDA-MB-435 = tested on: MDA-MB-435

| SMILES | TGI (RXF 393 renal) | TGI (CCRF-CEM leukemia) | TGI (OVCAR-5 ovarian) | TGI (OVCAR-4 ovarian) | TGI (KM12 colon) | TGI (NCI-H522 lung) | TGI (SK-MEL-2 melanoma) | TGI (HCC-2998 colon) | TGI (NCI-H23 lung) | TGI (NCI/ADR-RES ovarian) | TGI (MDA-MB-435) | GI50 (OVCAR-5 ovarian) | GI50 (OVCAR-4 ovarian) | GI50 (KM12 colon) | GI50 (NCI-H522 lung) | GI50 (SK-MEL-2 melanoma) | GI50 (HCC-2998 colon) | GI50 (NCI-H23 lung) | GI50 (MDA-MB-435) |
| --- | --- | --- | --- | --- | --- | --- | --- | --- | --- | --- | --- | --- | --- | --- | --- | --- | --- | --- | --- |
| NS(=O)(=O)c1ccc(NC(=O)N/N=C/c2ccccc2[N+](=O)[O-])cc1 | > 100 µM | > 100 µM | > 100 µM | > 100 µM | > 100 µM | > 100 µM | > 100 µM | > 100 µM | > 100 µM | > 100 µM | 42.7 µM | – | – | – | – | – | – | – | – |
| COC1OC2COC1(OCc1ccccc1)C1OC(C)(C)OC21 (stereo not given) | > 100 µM | > 100 µM | > 100 µM | > 100 µM | > 100 µM | > 100 µM | > 100 µM | > 100 µM | > 100 µM | > 100 µM | > 100 µM | – | – | – | – | – | – | – | – |
| Nc1ncnc2c1ncn2[C@H]1C=C[C@@H](NO)C1 | > 100 µM | > 100 µM | > 100 µM | > 100 µM | > 100 µM | > 100 µM | > 100 µM | > 100 µM | > 100 µM | > 100 µM | > 100 µM | – | – | – | – | – | – | – | – |
| S=C(NCc1ccccc1)Nc1sc(=NCc2ccccc2)nc2sc3c(c12)CCN(N1CCc2c(sc4nc(=NCc5ccccc5)sc(NC(=S)NCc5ccccc5)c24)C1)C3 | > 65.9 µM | > 70.2 µM | > 85.2 µM | > 91 µM | > 67.5 µM | > 100 µM | > 81.8 µM | > 62 µM | > 83.4 µM | > 100 µM | > 100 µM | – | – | – | – | – | – | – | – |
| Cc1ccc2c(c1)nc1n2C(c2c(F)cccc2F)SC1 (stereo not given) | 96.4 µM | > 100 µM | > 100 µM | > 100 µM | > 100 µM | > 100 µM | 48.2 µM | > 100 µM | > 100 µM | > 100 µM | > 100 µM | – | – | – | – | – | – | – | – |
| C=C1C2CCC3C4(C)CCCC(C)(C(=O)O)C4CCC3(C2)C1OC(=O)/C(C)=C/C (stereo not given) | 34.2 µM | > 100 µM | 79.5 µM | > 100 µM | 35.1 µM | > 100 µM | > 100 µM | 69.5 µM | > 100 µM | 53.6 µM | > 100 µM | – | – | – | – | – | – | – | – |
| FC1(F)ON2CCc3ccccc3C2[C@H]1c1ccccc1 (stereo not given in full) | > 100 µM | > 100 µM | > 100 µM | > 100 µM | > 100 µM | > 100 µM | > 100 µM | > 100 µM | > 100 µM | > 100 µM | > 100 µM | > 100 µM | > 100 µM | > 100 µM | > 100 µM | > 100 µM | > 100 µM | > 100 µM | > 100 µM |
| C#C[C@]1(O)CC[C@H]2[C@@H]3CCC4=C/C(=N\OCCN5CCCCC5)CC[C@]4(C)[C@H]3CC[C@@]21C | 11.3 µM | > 53.8 µM | 28.1 µM | 40 µM | 12.3 µM | 6.08 µM | 8.76 µM | 35.2 µM | 17.5 µM | 15.4 µM | 8.91 µM | – | – | – | – | – | – | – | – |
| O=C(OC1=CCN(Br)C1=O)C1=C(O)C(=O)N(Br)C1 | 38.5 µM | > 100 µM | 52.8 µM | > 100 µM | > 100 µM | 31.4 µM | > 100 µM | > 100 µM | > 100 µM | > 100 µM | > 100 µM | – | – | – | – | – | – | – | – |
| Nc1nc(Cl)cc(NCC2(CCO)CCC2)n1 | > 100 µM | > 100 µM | > 100 µM | > 100 µM | > 100 µM | > 100 µM | > 100 µM | > 100 µM | > 100 µM | > 100 µM | > 100 µM | – | – | – | – | – | – | – | – |
| COC(=O)c1cc2c(c(C(=O)OC)c1)CCC2 | > 100 µM | > 100 µM | > 100 µM | > 100 µM | – | > 100 µM | > 100 µM | > 100 µM | > 100 µM | > 100 µM | > 100 µM | – | – | – | – | – | – | – | – |
| Cn1c(-c2ccco2)ccc1-c1ccc(C=O)o1 | > 100 µM | > 100 µM | > 100 µM | > 100 µM | > 100 µM | > 100 µM | > 100 µM | > 100 µM | > 100 µM | > 100 µM | > 100 µM | – | – | – | – | – | – | – | – |
| COc1ccc(/C=C2\N=C(N3CCCC(CO)C3)NC2=O)cc1 (stereo not given) | > 100 µM | > 100 µM | > 100 µM | > 100 µM | > 100 µM | > 100 µM | > 100 µM | > 100 µM | > 100 µM | > 100 µM | > 100 µM | – | – | – | – | – | – | – | – |
| NCC(=O)Nc1ccccc1 | > 100 µM | – | > 100 µM | > 100 µM | > 100 µM | > 100 µM | > 100 µM | > 100 µM | > 100 µM | > 100 µM | > 100 µM | – | – | – | – | – | – | – | – |
| C[C@H](Nc1nc(N)c(N=O)c(=O)n1C)C(=O)O | > 10 µM | > 10 µM | > 10 µM | > 10 µM | > 10 µM | > 10 µM | > 10 µM | > 10 µM | > 10 µM | > 10 µM | > 10 µM | – | – | – | – | – | – | – | – |
| C(=N\c1nc2cc3sc(/N=C/c4ccccc4)nc3cc2s1)/c1ccccc1 | > 100 µM | 42 µM | > 100 µM | > 100 µM | > 100 µM | 97.4 µM | > 100 µM | > 100 µM | > 100 µM | > 100 µM | > 100 µM | – | – | – | – | – | – | – | – |
| OC1NC2Nc3ccccc3NC2NC1O (stereo not given) | > 100 µM | > 100 µM | > 100 µM | > 100 µM | > 100 µM | > 100 µM | > 100 µM | > 100 µM | > 100 µM | > 100 µM | > 100 µM | – | – | – | – | – | – | – | – |
| CCOC(=O)C(NC(=O)c1cccc(Cl)c1)(Nc1ccc(S(=O)(=O)Nc2cc(C)on2)cc1)C(F)(F)F (stereo not given) | > 100 µM | > 100 µM | > 100 µM | > 100 µM | > 100 µM | > 100 µM | > 100 µM | > 100 µM | > 100 µM | > 100 µM | > 100 µM | – | – | – | – | – | – | – | – |
| CCOP(=O)(OCC)Oc1c(OC)c2[nH]c(C(=O)OC)cc2c2c(C(=O)O)c[nH]c12 | > 100 µM | > 100 µM | > 100 µM | > 100 µM | 81.3 µM | > 100 µM | > 100 µM | > 100 µM | > 100 µM | > 100 µM | > 100 µM | – | – | – | – | – | – | – | – |
